{"source": "BindingDB's records for doi:10.1128/aac.00917-07", "about": "(Umdnj-New Jersey Medical School, 2007)", "target": "1,3-beta-glucan synthase (Aspergillus fumigatus, UniProt P87204, S678P)", "sequence (P87204 entry or part of it S678P)": "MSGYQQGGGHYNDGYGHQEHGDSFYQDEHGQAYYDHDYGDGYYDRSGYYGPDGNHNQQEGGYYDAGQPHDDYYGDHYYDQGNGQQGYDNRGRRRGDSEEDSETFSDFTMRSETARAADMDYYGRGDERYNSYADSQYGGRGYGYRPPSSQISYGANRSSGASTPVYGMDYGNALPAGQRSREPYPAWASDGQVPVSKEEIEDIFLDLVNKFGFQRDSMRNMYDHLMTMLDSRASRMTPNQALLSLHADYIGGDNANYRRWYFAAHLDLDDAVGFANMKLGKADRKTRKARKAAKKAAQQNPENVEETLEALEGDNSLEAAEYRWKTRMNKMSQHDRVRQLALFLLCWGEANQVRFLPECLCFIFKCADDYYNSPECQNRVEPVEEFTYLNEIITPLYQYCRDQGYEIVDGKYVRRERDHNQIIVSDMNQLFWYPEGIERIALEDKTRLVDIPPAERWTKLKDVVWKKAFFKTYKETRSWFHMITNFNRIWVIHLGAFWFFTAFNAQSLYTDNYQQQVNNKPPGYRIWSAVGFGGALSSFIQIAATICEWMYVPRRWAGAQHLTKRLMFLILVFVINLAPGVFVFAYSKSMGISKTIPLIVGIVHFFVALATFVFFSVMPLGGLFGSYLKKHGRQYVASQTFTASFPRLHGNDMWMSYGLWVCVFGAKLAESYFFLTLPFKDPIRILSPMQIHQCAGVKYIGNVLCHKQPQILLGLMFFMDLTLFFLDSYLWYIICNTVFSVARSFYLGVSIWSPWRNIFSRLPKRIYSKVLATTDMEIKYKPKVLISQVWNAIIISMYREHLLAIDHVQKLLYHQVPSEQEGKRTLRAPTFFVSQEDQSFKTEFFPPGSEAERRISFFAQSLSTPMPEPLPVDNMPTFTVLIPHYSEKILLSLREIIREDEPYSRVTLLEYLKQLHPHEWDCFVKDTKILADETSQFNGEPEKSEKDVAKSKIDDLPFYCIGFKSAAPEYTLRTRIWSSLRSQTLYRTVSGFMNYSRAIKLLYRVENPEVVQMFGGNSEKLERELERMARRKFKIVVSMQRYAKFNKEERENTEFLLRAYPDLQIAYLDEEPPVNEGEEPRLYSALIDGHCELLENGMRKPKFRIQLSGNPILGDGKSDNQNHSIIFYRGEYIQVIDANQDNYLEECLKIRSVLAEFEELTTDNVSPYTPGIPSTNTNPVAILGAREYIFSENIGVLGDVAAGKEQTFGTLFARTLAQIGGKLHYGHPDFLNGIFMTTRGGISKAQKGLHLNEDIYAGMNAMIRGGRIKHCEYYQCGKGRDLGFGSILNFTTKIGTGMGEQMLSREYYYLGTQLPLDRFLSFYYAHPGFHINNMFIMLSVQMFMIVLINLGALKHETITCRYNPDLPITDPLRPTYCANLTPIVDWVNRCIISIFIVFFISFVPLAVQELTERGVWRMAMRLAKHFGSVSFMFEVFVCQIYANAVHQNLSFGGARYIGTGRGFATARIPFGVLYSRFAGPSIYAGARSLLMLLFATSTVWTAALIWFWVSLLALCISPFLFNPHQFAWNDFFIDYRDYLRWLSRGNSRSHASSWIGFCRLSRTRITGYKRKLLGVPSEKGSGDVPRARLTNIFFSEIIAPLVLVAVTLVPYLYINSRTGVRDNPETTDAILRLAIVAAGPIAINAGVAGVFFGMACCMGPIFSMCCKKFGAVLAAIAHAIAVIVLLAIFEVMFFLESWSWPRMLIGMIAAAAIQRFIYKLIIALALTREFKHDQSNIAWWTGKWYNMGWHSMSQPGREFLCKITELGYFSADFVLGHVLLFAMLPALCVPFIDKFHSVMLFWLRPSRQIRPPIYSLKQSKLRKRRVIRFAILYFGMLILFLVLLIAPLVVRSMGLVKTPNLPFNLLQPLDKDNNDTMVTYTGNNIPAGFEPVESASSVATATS", "assay": "Inhibition of 1,3-beta-D-glucan synthase EMFR-S678P mutant from Aspergillus fumigatus assessed as incorporation of [3H]glucose"}
{"smiles": "CCC(C)CC(C)CCCCCCCCC(=O)N[C@H]1C[C@@H](O)[C@@H](NCCN)NC(=O)[C@@H]2[C@@H](O)CCN2C(=O)[C@H]([C@H](O)CCN)NC(=O)[C@H]([C@H](O)[C@@H](O)c2ccc(O)cc2)NC(=O)[C@@H]2C[C@@H](O)CN2C(=O)[C@H]([C@@H](C)O)NC1=O", "note": "(stereo partly specified) [CHEBI:474180]", "values": [{"measurement": "IC50", "value": 110, "unit": "nM"}]}
